# B1: IL-12: recombinant mouse IL-12 from R&D Systems (protein, UniProt P43431 23-215; P43432 23-335, looked up)
# Interleukin-12 subunit alpha: RVIPVSGPARCLSQSRNLLKTTDDMVKTAREKLKHYSCTAEDIDHEDITRDQTSTLKTCLPLELHKNESCLATRETSSTTRGSCLPPQKTSLMMTLCLGSIYEDLKMYQTEFQAINAALQNHNHQQIILDKGMLVAIDELMQSLNHNGETLRQKPPVGEADPYRVKMKLCILLHAFSTRVVTINRVMGYLSSA
# Interleukin-12 subunit beta: MWELEKDVYVVEVDWTPDAPGETVNLTCDTPEEDDITWTSDQRHGVIGSGKTLTITVKEFLDAGQYTCHKGGETLSHSHLLLHKKENGIWSTEILKNFKNKTFLKCEAPNYSGRFTCSWLVQRNMDLKFNIKSSSSSPDSRAVTCGMASLSAEKVTLDQRDYEKYSVSCQEDVTCPTAEETLPIELALEARQQNKYENYSTSFFIRDIIKPDPPKNLQMKPLKNSQVEVSWEYPDSWSTPHSYFSLKFFVRIQRKKEKMKETEEGCNQKGAFLVEKTSTEVQCKGGNVCVQAQDRYYNSSCSKWACVPCRVRS
# How the values were obtained:
# MCA205 cells = assay: Cell death induction for vaccination, FACS analysis of Annexin V+ DAPI+ cells; format: cell-based, mouse; details: MCA205, 1 μM mitoxantrone, 24 hours
# Method: Anti cancer vaccination was assessed using a previously described setting (Casares et al., 2005; Obeid et al., 2007). CT26 cells were cultured with either PBS or 20 μM doxorubicin, and MCA205 with either PBS or 1 μM mitoxantrone for 24 h. All these treatments led to ˜50% of Annexin V^+ DAPI^+ cells, as assessed by FACS analysis at 24 hours. After careful washes, cells were resuspended in sterile PBS. CT26 cells were incubated in the presence or in the absence of antimycin A and deoxyglucose (2 μg/ml and 30 mM, respectively) for 20 min, or in the presence or in the absence of Oxi-ATP ([…]). After 3 washes, 3×10^6 dying CT26 cells (or 3×10^5 MCA205 cells) were injected subcutaneously into the left flank of mice. In some experiments, 100 μg of IL-1Ra (Anakinra) was injected along with the dying cells. Seven days later, mice were rechallenged into the right flank with 5×10^5 live CT26 cells (or, alternatively, 3.10^4 live MCA205 cells). Tumor growth was then monitored weekly.
# EG7 cells = assay: ATP assays (extracellular and intracellular ATP, luciferin-luciferase) on oxaliplatin-treated tumor cells; format: cell-based, mouse
# Method: FIG. 1: ATP release by dying tumor cells dictates the immunogenicity of cell death. FIG. 1a. Accumulation of ATP in the extracellular space following exposure of tumor cells to chemotherapy. EG7 were treated with oxaliplatin, and ATP release into the supernatant was monitored. FIG. 1b. […] EG7 were treated with oxaliplatin for 24 hours and subsequently with antimycin A and deoxyglucose (A/D) for 20 min. Data (means±SEM of triplicates) of one representative experiment out of three are depicted. FIG. 1c. Failure of dying tumor cells depleted from ATP to elicit an OVA specific immune response. Live or oxaliplatin-treated EG7 cells were injected into the footpad of C57B1/6 mice. Five days later, popliteal lymph node cells were recovered and restimulated with the OVA holoprotein for 72 hours before quantification of IFNγ secretion. The levels of IFNγ secretion between mice immunized with ATP-depleted or not depleted EG7 were compared in three independent experiments. FIG. 1d. Inhibition of purinergic receptors with oxidized ATP (oxiATP) abolishes T cell priming by oxaliplatin-treated EG7 cells. […] Five days later, the local immune response was measured as in (a). […]
# Plates were read in a Fluostar luminometer (BMG Labtech).
# EL4 thymoma tumors = assay: Chemotherapy of EL4 tumors established in mice; format: in vivo
# Method: FIG. 17. The anti-cancer activity of oxaliplatin depends on P2X7 and the NALP3 inflammasome. FIG. 17a,b,c. Therapeutic efficacy of oxaliplatin on established tumors depends on the integrity of the immune system on the P2X7/NALP3/casp-1 axis. EL4 thymoma tumors were established in syngenic mice bearing the indicated genotypes (a-c) or injected with anti-CD8 antibody (a). When the tumor reached 70-90mm^2 in size, mice were either left untreated or were treated with oxaliplatin. Each treatment group included 5-6 mice (X±SEM), and each experiment was repeated three times with similar results. * p<0.05. d. Caspase 1 is required for the immune response promoted by oxaliplatin chemotherapy. EG7 tumors established in the thigh were treated with one systemic injection of oxaliplatin. Inguinal lymph node cells were harvested 5 days later, and the gangliocytes were restimulated in vitro. IFNγ secretion was assessed by ELISA. Results (means of triplicates ±SEM, n=3) are representative of one typical experiment out of three. ^*P<0.01. FIG. 17d. The efficacy of anthracyclines against established colon cancer is dependent on IL-1β. CT26 tumors established for 10 days in WT mice were treated with one local injection of doxorubicin in the absence or presence of neutralizing anti-IL-1β Ab (n=10/group, *p<0.05). FIG. 17e. A single-nucleotide polymorphism (SNP) in P2X7 (rs3751143) affects the long-term efficacy of conventional anti-cancer therapy in breast cancer patients. Comparative Kaplan-Meier estimates of time to metastasis in two groups of patients bearing the normal (Glu496Glu) or loss-of-function (Glu496Ala) P2X7 alleles. The time to metastatic progression was analyzed in 225 women with non-metastatic breast cancer who received adjuvant chemotherapy with anthracylines.
# Wild type or loss-of-function C57BL/6 mice were injected s.c. with 10^6 EL4 cells into the right flank. Alternatively, wild-type BALB/c mice were injected with 5.10^5 CT26 cells into the right flank. Mice were then randomly assigned to treatment groups of 4-6 mice each. The tumor surface was monitored using a caliper. When tumor size reached 70-90 mm^2 for EL4 (9-12 days post-injection) or 60-80 mm^2 for CT26 (8-10 days post-injection), mice received chemotherapy (Apetoh et al., 2007). Mice bearing EL4 tumors were injected with oxaliplatin (5 mg/kg i.p), while mice bearing CT26 tumors were injected with doxorubicin (50 μl, 4 mM i.t). In some experiments, CT26 tumor-bearing mice received two injections (on day 0 and day 2 after the commencement of chemotherapeutic treatment) of IL-1Ra (McIntyre et al., 1991) (100 μg), anti-IL-1 antibody (100 μg) or hamster serum as a control.
# [1] = tested on: T cell priming for IFNγ production; assay: Priming assay: dying EG7 cells injected into the footpad, IFNγ secretion of restimulated popliteal lymph node cells; format: in vivo, mice; details: cytokine co-injected with oxaliplatin-treated EG7: rIL-1β 250 ng, rIL-12 50 ng, rIL-6 250 ng per footpad
# Method: 1.10^6 CT26, EG7, or B16F10 cells were either left untreated or treated with doxorubicin (20 μM) or oxaliplatin (5 μg/ml) for 24 h. Cells were then injected into the footpad of syngenic mice. In some experiments, 20 or 100 μg of IL-1Ra (Anakinra) or 250 ng of recombinant murine IL-1β (or 250 ng of IL-6 or 50 ng of IL-12) was injected along with dying tumor cells into the footpad of mice. Alternatively, DC were cocultured with EG7 cells for 2 hours, followed by the purification of CD11c^+ cells with anti-CD11c mAb coupled to magnetic beads (Miltenyi Biotec, Paris, France) and injection of these purified DC into the footpad. Five days later, gangliocytes from popliteal lymph nodes were harvested, seeded in 96 U-well plates (3.10^5 cells per well), and restimulated with 1 mg/ml OVA protein. Restimulation with MCA205 or CT26 cells was performed using 3×10^4 tumor cells killed by 5 min heating at 42° C. followed by 1 cycle of freezing/thawing in liquid nitrogen. For B16F10, restimulation was achieved using gp100 peptide as previously described (Overwijk et al., 1998). As a positive control of T cell priming, mice were injected with OVA protein (1 mg) (or gp100 for B16F10) and the association of CpG (10 μg) and Poly I:C (5 μg). For CT26 priming experiments, cell lysate plus LPS (250 ng) was used as a positive control. Supernatants were harvested 72 hours later, and IFNγ secretion was assessed by ELISA. Alternatively, cells were stimulated with PMA (10 ng/ml) and ionomycin (1 μg/ml) for 1 h, followed by the addition of brefeldin A (10 μg/ml for 6 h at 37° C.) (Apetoh et al., 2007), surface staining with Abs specific for CD3, CD4 or CD8, fixation and permeabilization (Cytofix/cytoperm kit) and then labeled with antibodies specific for IFNγ. Immunofluorescence was analyzed on a LSRII flow cytometer (BD Biosciences) with FACSDiva software.
# OT-1 CD8+ T cells = assay: In vitro stimulation of OT-1 cells by BM-DC loaded with oxaliplatin-treated EG7; format: cell-based, mouse; details: rIL-1β 100 ng/ml or IL-12 10 ng/ml added to cocultures
# Method: FIG. 15. IL-1β-dependent CTL priming by dying tumor cells in vitro and in vivo. FIG. 15a. MyD88 is required at the level of the host but not that of the APC. DC from WT mice were first loaded with antigen (OVA holoprotein with C/P adjuvant, live or oxaliplatin-treated EG7 cells) and then injected into the footpad of into WT or MyD88^−/− recipients (n=6 mice/group). Five days later, the local immune response was measured as in FIG. 2d,e. Results of one typical experiment out of three are depicted. FIG. 15b. Casp-1 and IL-1β-dependent OT-I priming in vitro. The differentiation of IFNγ producing CD8^+ OT-1 cells was induced by incubating naïve OVA-specific TCR transgenic OT-1 lymphocytes with syngeneic BM-DC (derived from WT or Casp-1^−/− mice) that were loaded with oxaliplatin-treated EG7 for 2 days in vitro. […] Exogenous addition of rIL-1β (100 ng/ml) or IL-12 (10 ng/ml) to cocultures of Casp-1^−/− DC loaded with dying tumor cells and incubated with OT1 restored T cell priming. […] FIG. 15c. Specific and direct polarizing effects of IL-1β on T lymphocytes in vitro. Purified CD3^+ CD8^+ T cells derived from naïve WT mice were stimulated with anti-CD3 and anti-CD28 mAb for 5 days in the presence of the indicated cytokines (10 ng/ml for IL-12p70, 100 ng/ml for IL-1β, IL-6 and TNFα) -and IFNγ production was measured as in FIG. 3b. FIG. 15d. […]
molecule,measurement,setting,value
O=C1c2c(O)ccc(O)c2C(=O)c2c(NCCNCCO)ccc(NCCNCCO)c21 [mitoxantrone],Annexin V+ DAPI+ cells,MCA205 cells,~50%
O=C1[O][Pt]2([NH][C@@H]3CCCC[C@H]3[NH]2)[O]C1=O [oxaliplatin],intracellular ATP,EG7 cells; EG7 treated with oxaliplatin for 24 hours,Decrease of intracellular ATP
same,release of ATP into the supernatant,"EG7 cells; EL4 thymomas and EG7 cells, oxaliplatin 5 μg/ml, 0-24 hours",induced the release of ATP
same,response of EL4 tumors to oxaliplatin,EL4 thymoma tumors; Casp1−/− mice versus WT controls,responded less efficiently
same,therapeutic efficacy on established EL4 tumors,EL4 thymoma tumors; IfnγR1−/− mice,lost its therapeutic efficacy
same,therapeutic efficacy on established EL4 tumors,EL4 thymoma tumors; Il-12Rβ2−/− mice (and WT),remained efficient
same,response of EL4 tumors to oxaliplatin,EL4 thymoma tumors; Nalp3−/− mice versus WT controls,responded less efficiently
same,response of EL4 tumors to oxaliplatin,EL4 thymoma tumors; P2X7−/− mice versus WT controls,responded less efficiently
same,therapeutic efficacy on established EL4 tumors,EL4 thymoma tumors; T and B cell-deficient rag-2−/− mice,lost its therapeutic efficacy
same,therapeutic efficacy on established EL4 tumors,EL4 thymoma tumors; T cell-deficient nu/nu mice,lost its therapeutic efficacy
same,control of EL4 tumor growth,"EL4 thymoma tumors; immunocompetent WT mice, oxaliplatin 5 mg/kg i.p.",efficient in controlling EL4 tumor growth
same,therapeutic efficacy on established EL4 tumors,EL4 thymoma tumors; mice depleted from CD8+ T cells,lost its therapeutic efficacy
B1,T cell priming in Nalp3−/− or Casp1−/− mice,[1],restored deficient T cell priming
same,priming capacity of Casp-1−/− DC for OT-1 cells (IFNγ),OT-1 CD8+ T cells,restored the priming capacity
